Assays:
PI3K gamma = biological target: T1, PI3K gamma (Homo sapiens, UniProt P48736); test: Drug pulldown with immobilized phenylthiazole ligand 1 from MOLT-4 lysate, Western blot; format: binding; conditions: 50 mg protein, FIG. 2A
T1 construct: PI3K gamma protein was captured by immobilized phenylthiazole ligand 1 from MOLT-4 cell lysate; endogenous in cells; host or cells: MOLT-4 cells (human T cell line, ATCC CRL-1582), cell lysate
Procedure: (§1) As biological material a cell lysate prepared from MOLT-4 cells was used. The drug pulldown experiment was performed as described in Example 2 with lysate samples containing 50 mg of protein. Captured proteins were eluted with DMSO containing buffer (lane 1), 100 μM of free phenylthiazole ligand 1 or SDS sample buffer (lane 3). The eluted samples were separated on SDS-polyacrylamide gels and transferred to membranes. The blots were first incubated with specific antibodies directed against PI3K gamma (FIG. 2A) and PI3K delta (FIG. 2B). Secondary detection antibodies labeled with fluorescent dyes for detection were used with the Odyssey infrared imaging system.
(§2) To this end a lysate of MOLT-4 cells was contacted with the affinity matrix described in example 1. […]
(§3) For Western blot analysis bound proteins were eluted from the affinity matrix and subsequently separated by SDS-Polyacrylamide gel electrophoresis. PI3K gamma and PI3K delta were detected with specific antibodies (FIG. 2).
(§4) MOLT-4 cells were homogenized in a Potter S homogenizer in lysis buffer: 50 mM Tris-HCl, 0.8% NP40, 5% glycerol, 150 mM NaCl, 1.5 mM MgCl2, 25 mM NaF, 1 mM sodium vanadate, 1 mM DTT, pH 7.5. […] The supernatant was transferred again to a fresh 50 ml falcon tube, the protein concentration was determined by a Bradford assay (BioRad) and samples containing 50 mg of protein per aliquot were prepared. […]

PI3K delta = biological target: T2, PI3K delta (Homo sapiens, UniProt O00329); test: as above; format: binding; conditions: 50 mg protein, FIG. 2B
T2 construct: immobilized phenylthiazole ligand 1 captures (pulls down) PI3K gamma and PI3K delta from the cell lysate; endogenous in cells; host or cells: MOLT-4 cells (human T cell line, ATCC CRL-1582), cell lysate
T2 sequence (O00329 whole entry): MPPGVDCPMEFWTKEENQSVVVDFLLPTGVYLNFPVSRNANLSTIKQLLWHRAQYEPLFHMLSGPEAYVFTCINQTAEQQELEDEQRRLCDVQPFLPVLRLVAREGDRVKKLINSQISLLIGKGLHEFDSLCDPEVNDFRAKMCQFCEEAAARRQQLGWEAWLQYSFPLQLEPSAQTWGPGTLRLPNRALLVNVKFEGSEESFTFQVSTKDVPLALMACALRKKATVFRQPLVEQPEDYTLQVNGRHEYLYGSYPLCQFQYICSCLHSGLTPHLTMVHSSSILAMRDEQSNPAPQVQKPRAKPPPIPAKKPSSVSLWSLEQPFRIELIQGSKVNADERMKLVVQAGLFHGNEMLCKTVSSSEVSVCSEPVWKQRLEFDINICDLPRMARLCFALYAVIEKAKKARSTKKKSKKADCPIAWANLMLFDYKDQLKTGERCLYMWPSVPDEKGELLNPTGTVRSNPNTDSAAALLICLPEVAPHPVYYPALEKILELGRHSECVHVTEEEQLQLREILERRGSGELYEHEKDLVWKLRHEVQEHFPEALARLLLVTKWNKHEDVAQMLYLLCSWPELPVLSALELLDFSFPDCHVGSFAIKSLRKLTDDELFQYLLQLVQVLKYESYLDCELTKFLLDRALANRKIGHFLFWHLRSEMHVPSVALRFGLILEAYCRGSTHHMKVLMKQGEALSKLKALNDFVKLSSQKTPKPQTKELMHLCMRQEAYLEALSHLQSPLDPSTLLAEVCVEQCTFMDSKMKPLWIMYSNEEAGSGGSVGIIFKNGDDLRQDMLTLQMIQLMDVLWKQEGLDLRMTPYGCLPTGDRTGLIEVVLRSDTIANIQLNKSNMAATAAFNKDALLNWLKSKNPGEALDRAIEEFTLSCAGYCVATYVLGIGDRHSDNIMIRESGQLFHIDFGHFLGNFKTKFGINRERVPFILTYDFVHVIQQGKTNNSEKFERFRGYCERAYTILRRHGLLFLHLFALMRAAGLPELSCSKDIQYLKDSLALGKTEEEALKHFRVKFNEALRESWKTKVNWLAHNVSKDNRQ
T2 sequence (P27986 whole entry partner): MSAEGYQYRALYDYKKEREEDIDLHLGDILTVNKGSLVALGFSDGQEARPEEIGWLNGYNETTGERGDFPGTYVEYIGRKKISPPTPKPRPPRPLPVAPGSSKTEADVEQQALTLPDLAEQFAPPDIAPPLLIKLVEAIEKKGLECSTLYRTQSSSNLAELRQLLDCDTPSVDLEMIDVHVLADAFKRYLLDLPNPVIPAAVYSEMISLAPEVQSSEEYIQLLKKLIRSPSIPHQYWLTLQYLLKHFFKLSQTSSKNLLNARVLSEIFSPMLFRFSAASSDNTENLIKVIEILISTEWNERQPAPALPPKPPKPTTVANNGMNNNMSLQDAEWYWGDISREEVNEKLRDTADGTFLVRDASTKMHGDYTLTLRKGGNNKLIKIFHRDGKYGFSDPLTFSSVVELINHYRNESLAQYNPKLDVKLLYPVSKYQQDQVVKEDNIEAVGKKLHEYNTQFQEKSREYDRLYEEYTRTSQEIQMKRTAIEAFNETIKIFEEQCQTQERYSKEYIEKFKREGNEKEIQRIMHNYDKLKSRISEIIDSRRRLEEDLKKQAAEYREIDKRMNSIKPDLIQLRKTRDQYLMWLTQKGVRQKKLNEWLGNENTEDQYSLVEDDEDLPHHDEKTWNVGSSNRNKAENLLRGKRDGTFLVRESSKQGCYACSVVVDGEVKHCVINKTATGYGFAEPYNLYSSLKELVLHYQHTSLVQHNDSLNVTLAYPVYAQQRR
Procedure: as §1, §2, §3, §4

T1 sequence (P48736 whole entry): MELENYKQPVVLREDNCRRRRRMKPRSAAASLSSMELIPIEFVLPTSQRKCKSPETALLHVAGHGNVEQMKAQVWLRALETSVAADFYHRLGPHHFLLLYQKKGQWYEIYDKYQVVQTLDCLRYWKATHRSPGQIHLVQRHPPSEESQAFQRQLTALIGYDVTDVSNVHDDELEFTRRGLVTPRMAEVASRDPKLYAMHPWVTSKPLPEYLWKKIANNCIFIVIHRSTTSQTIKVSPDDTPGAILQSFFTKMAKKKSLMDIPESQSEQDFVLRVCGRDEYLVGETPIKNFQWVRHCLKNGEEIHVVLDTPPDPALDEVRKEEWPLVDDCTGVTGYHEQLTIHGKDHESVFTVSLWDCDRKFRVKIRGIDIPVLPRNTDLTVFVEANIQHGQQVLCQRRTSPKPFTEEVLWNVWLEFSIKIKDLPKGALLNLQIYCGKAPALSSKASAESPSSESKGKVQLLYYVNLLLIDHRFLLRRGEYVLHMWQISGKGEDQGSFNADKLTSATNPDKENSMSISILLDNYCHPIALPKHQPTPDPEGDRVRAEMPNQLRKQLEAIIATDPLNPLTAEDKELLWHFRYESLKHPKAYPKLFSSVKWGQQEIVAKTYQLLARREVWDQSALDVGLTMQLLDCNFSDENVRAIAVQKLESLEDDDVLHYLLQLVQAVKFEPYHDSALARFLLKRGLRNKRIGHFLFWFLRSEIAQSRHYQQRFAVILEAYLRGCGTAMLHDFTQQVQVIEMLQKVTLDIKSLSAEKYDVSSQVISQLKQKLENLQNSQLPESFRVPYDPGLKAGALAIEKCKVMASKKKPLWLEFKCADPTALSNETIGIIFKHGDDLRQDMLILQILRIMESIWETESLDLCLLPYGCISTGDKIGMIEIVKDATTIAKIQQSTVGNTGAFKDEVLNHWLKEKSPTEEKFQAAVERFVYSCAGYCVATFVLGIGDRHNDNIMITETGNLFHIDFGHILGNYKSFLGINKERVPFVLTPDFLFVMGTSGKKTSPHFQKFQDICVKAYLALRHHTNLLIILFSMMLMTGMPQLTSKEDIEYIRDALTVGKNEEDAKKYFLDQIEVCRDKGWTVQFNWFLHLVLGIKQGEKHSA

Cc1nc(NC(=O)CCOCCOCCOCCOCCN)sc1-c1ccc(Cl)c(S(C)(=O)=O)c1.Cl [phenylthiazole ligand 1, 3-(2-{2-[2-(2-amino-ethoxy)-ethoxy]-ethoxy}-ethoxy)-N-[5-(4-chloro-3-methanesulfonyl-phenyl)-4-methyl-thiazol-2yl]-propionamide hydrochloride]
Capture (pull down) of PI3K gamma from the cell lysate (PI3K gamma): captures
Capture (pull down) of PI3K delta from the cell lysate (PI3K delta): captures

Reference: patent US8153389B2, “Methods for the identification of PI3K interacting molecules and for the purification of PI3K” (CellZone AG, priority 2006, dated 2012)
